Experimental data: ChEMBL document CHEMBL1151382, “A pharmacological study of two bisbenzylisoquinoline alkaloids, thalistyline and obamegine” (J Nat Prod, 1982)
Active and inactive are the calls of the source. The rule behind the calls is not given here.

What was measured:
[1] = Blockade of neuromuscular transmission activity in albino Sprague-Dawley rat hemidiaphragm assessed as inhibition of electrically-stimulated phrenic nerve contraction; format: functional, tissue-based, Diaphragm
Canis familiaris [2] = experiment: Cardiovascular effect in anesthetized normotensive iv dosed dog assessed as decrease in mean arterial pressure; format: functional, organism-based; settings: Canis lupus familiaris; Artery
Rattus norvegicus = species on record: Rattus norvegicus; experiment: Blockade of neuromuscular transmission activity in albino Sprague-Dawley rat hemidiaphragm assessed as inhibition of electrically-stimulated phrenic nerve contraction at 1 to 30 X 10^-6 M; format: functional, tissue-based; settings: Diaphragm
Canis familiaris [3] = experiment: Cardiovascular effect in anesthetized normotensive dog assessed as decrease in mean arterial pressure at 2 mg/kg, iv upto 22 mins; format: functional, Canis lupus familiaris, Artery
[4] = Antagonist activity at alpha adrenergic receptor in rabbit aortic strips assessed as decrease in of phenylephrine-induced contraction at 3 X 10^-4 M; format: functional, Oryctolagus cuniculus; design: scale not given: the % may be the effect or the level left
Canis familiaris [5] = experiment: Cardiovascular effect in anesthetized normotensive iv dosed dog assessed as decrease in heart rate; format: functional, Canis lupus familiaris
Canis familiaris [6] = experiment: Toxicity in dog at 0.5 to 4 mg/kg, iv; format: organism-based, Canis lupus familiaris; design: dose 0.5-4 mg/kg, route intravenous; settings: in vivo
Canis familiaris [7] = experiment: Toxicity in iv dosed dog assessed as inhibition of respiration; format: organism-based, Canis lupus familiaris; settings: in vivo
Canis familiaris [8] = experiment: Cardiovascular effect in anesthetized normotensive dog assessed as reduction in mean arterial pressure at 2 mg/kg, iv dosed twice with second dose being administered 2.5 hrs interval after the first dose; format: functional, Canis lupus familiaris, Artery
Oryctolagus cuniculus = species on record: Oryctolagus cuniculus; experiment: Antagonist activity at alpha adrenergic receptor in rabbit aortic strips assessed as decrease in of phenylephrine-induced contraction at 10^-4 M; format: functional
[9] = Antagonist activity at alpha adrenergic receptor in rabbit aortic strips assessed as inhibition of phenylephrine-induced contraction; format: functional, Oryctolagus cuniculus
Canis familiaris [10] = experiment: Cardiovascular effect in anesthetized normotensive dog assessed as decrease in mean arterial pressure at 0.1 to 0.4 mg/kg, iv; format: functional, organism-based; settings: Canis lupus familiaris, Artery
Canis familiaris [11] = experiment: Cardiovascular effect in anesthetized normotensive dog assessed as rise in heart rate at 0.1 mg/kg, iv; format: functional, Canis lupus familiaris
[12] = Blockade of neuromuscular transmission activity in albino Sprague-Dawley rat hemidiaphragm assessed as inhibition of electrically-stimulated phrenic nerve contraction at 10^-5 M relative to control in presence of Eserine; format: functional, Diaphragm; design: scale not given: the % may be the effect or the level left
[13] = Blockade of neuromuscular transmission activity in albino Sprague-Dawley rat hemidiaphragm assessed as inhibition of electrically-stimulated phrenic nerve contraction at 10^-5 M relative to control; format: functional, Diaphragm; design: scale not given: the % may be the effect or the level left
[14] = Protection of albino Sprague-Dawley rat hemidiaphragm from alpha-bungarotoxin blockade assessed as recovery of nerve-stimulated muscle contraction at 3 X 10^-5 M; format: functional, Muscle tissue
Canis familiaris [15] = experiment: Toxicity in dog assessed as inhibition of respiration at > 0.4 mg/kg, iv; format: organism-based, Canis lupus familiaris; design: dose 0.4 mg/kg, route intravenous; settings: in vivo
Canis familiaris [16] = experiment: Toxicity in dog at > 0.4 mg/kg, iv; format: organism-based, Canis lupus familiaris; design: dose 0.4 mg/kg, route intravenous; settings: in vivo
Canis familiaris [17] = experiment: Cardiovascular effect in anesthetized normotensive dog assessed as fall in heart rate at 0.1 to 0.4 mg/kg, iv; format: functional, Canis lupus familiaris; settings: dose mg/kg 0.1-0.4

| Structure (SMILES) | IC50 [1] | Activity (Canis familiaris [2]) | Activity (Rattus norvegicus) | Activity (Canis familiaris [3]) | Activity [4] | Activity (Canis familiaris [5]) | Activity (Canis familiaris [6]) | Activity (Canis familiaris [7]) | Activity (Canis familiaris [8]) | Activity (Oryctolagus cuniculus) | pKb [9] | Activity (Canis familiaris [10]) | Activity (Canis familiaris [11]) | Activity [12] | Activity [13] | Activity [14] | Activity (Canis familiaris [15]) | Activity (Canis familiaris [16]) | Activity (Canis familiaris [17]) | Kb ([9]; Oryctolagus cuniculus, read-out: pA2 (converted)) |
| --- | --- | --- | --- | --- | --- | --- | --- | --- | --- | --- | --- | --- | --- | --- | --- | --- | --- | --- | --- | --- |
| COc1cc2c3cc1Oc1cc(ccc1O)C[C@@H]1c4c(cc(OC)c(O)c4Oc4ccc(cc4)C[C@@H]3N(C)CC2)CC[N+]1(C)C | 1.42 µM |  |  |  |  |  |  |  |  |  |  |  |  |  |  |  |  |  |  |  |
| COc1cc2c3cc1Oc1c(O)c(OC)cc4c1[C@@H](Cc1ccc(O)c(c1)Oc1ccc(cc1)C[C@@H]3N(C)CC2)N(C)CC4 [OBAMEGINE] |  | Dose-dependent effect | inactive | 61 mmHg | 30% | 20 bpm | Non-toxic | Non-toxic | 11 mmHg | Active | 5.3 |  |  |  |  |  |  |  |  |  |
| COc1ccc(C[C@H]2c3cc(OC)c(OC)c(OC)c3CC[N+]2(C)C)cc1Oc1ccc(C[C@H]2c3cc(OC)c4c(c3CCN2C)OCO4)cc1.[Cl-] [THALISTYLINE] | 4.98 µM |  |  |  |  |  |  |  |  |  |  | Active | 20 bpm | 63.8% | 24.7% | 65.8% | Toxic | Toxic | 20 bpm | 0.468 µM |
